According to US12527800B2, “Therapeutic agent for Parkinson's disease” (KYOWA KIRIN CO., LTD., priority 2019, dated 2026):

Test system: patients of Parkinson's disease experiencing motor fluctuations
Experiment: Pooled analysis of phase 2b and phase 3 clinical studies of istradefylline combined with L-DOPA: change from baseline to week 12 and CGI-I at week 12
Format: in vivo, human
Conditions: for Mean daily OFF time, change from baseline to week 12: 12 weeks; for Mean daily OFF time, change from baseline to week 12 / Mean daily ON time with dyskinesia, change from baseline to week 12 / Mean daily ON time with non-troublesome dyskinesia, change from baseline to week 12 / Mean daily ON time with troublesome dyskinesia, change from baseline to week 12 / Mean daily ON time without dyskinesia, change from baseline to week 12 / Mean daily ON time without troublesome dyskinesia, change from baseline to week 12 / Mean daily percentage of OFF time, change from baseline to week 12 / Mean daily percentage of ON time with dyskinesia, change from baseline to week 12 / Mean daily percentage of ON time with non-troublesome dyskinesia, change from baseline to week 12 / Mean daily percentage of ON time with troublesome dyskinesia, change from baseline to week 12 / Mean daily percentage of ON time without dyskinesia, change from baseline to week 12 / Mean daily percentage of ON time without troublesome dyskinesia, change from baseline to week 12 / Total UPDRS Parts I-III at ON state, change from baseline to week 12 / UPDRS Part I score, change from baseline to week 12 / UPDRS Part II score OFF state, change from baseline to week 12 / UPDRS Part II score ON state, change from baseline to week 12 / UPDRS Part III score at ON state, change from baseline to week 12 / UPDRS Part IV score, change from baseline to week 12: mean ± SD; for CGI-I Minimally improved, % of patients / CGI-I Minimally improved, number of patients / CGI-I Minimally worse, % of patients / CGI-I Minimally worse, number of patients / CGI-I Much improved, % of patients / CGI-I Much improved, number of patients / CGI-I Much worse, % of patients / CGI-I Much worse, number of patients / CGI-I No change, % of patients / CGI-I No change, number of patients / CGI-I Very much improved, % of patients / CGI-I Very much improved, number of patients / CGI-I Very much worse, % of patients / CGI-I Very much worse, number of patients: week 12
Description: A pooled analysis was performed for two clinical studies of istradefylline combined with L-DOPA previously conducted in Japan. Both studies were performed according to the principles of the Declaration of Helsinki and were identically designed for 12-week, multicenter, randomized, double-blind, placebo-controlled, and parallel-group studies approved by the relevant institutional review boards of each center [(i) Mizuno Y, Kondo T. Adenosine A2A receptor antagonist istradefylline reduces daily OFF time in Parkinson's disease. Mov Disord 2013; 28: 1138-41, and (ii) Mizuno Y, Hasegawa K, Kondo T, et al. Clinical efficacy of istradefylline (KW-6002) in Parkinson's disease: a randomized, controlled study. Mov Disord 2010; 25(10): 1437-43)]. Both studies were registered in ClinicalTrials.gov (NCT00455507 [phase 2b] and NCT00955526 [phase 3]). Both studies enrolled patients of Parkinson's disease who were experiencing motor fluctuations.
Key inclusion criteria included age 20 years, stages 2-4 (OFF state) based on the Modified Hoehn and Yahr (mH&Y) scale, stable treatment regimen of antiparkinsonian drugs, and motor fluctuations with an OFF time of 2 hours or longer per day. Key exclusion criteria included history of surgical operation for Parkinson's disease, cognitive impairment, and pregnancy. The study protocols were approved by the institutional review boards at all participating study sites, and written informed consent was obtained from all patients prior to participation.
In both studies, eligible subjects were randomized to one of three groups: 12-week istradefylline 20 mg/day group, 12-week istradefylline 40 mg/day group, and 12-week placebo group. The subjects attended site visits at weeks 2, 4, 8, and 12 after randomization, and submitted patient diaries covering the 7-day period prior to each visit. The full analysis set included subjects who received at least one dose of study drug and completed at least one set of patient diaries.
The primary outcomes were changes in OFF time (hours/day) from baseline to 12 weeks obtained from the patient diaries, which were compared between the placebo group and the istradefylline group. Other outcomes included changes (%) in daily OFF time, changes in ON time without troublesome dyskinesia (“Good” ON time) (Hauser RA, Deckers F, Lehert P. Parkinson's disease home diary: further validation and implications for clinical trials. Mov Disord 2004; 19(12): 1409-13), (which was the summation of ON time without dyskinesia and ON time with non-troublesome dyskinesia), UPDRS parts I-IV score, and changes in Clinical Global Impressions-Improvement (CGI-I) score from baseline to 12 weeks. The varying from baseline values, and the treatment effect were determined as a difference in mean change between the placebo group and the istradefylline group during the follow up period.
Baseline data were summarized for all and respective treatment groups (placebo and istradefylline: 20 mg or 40 mg). Continuous variables were expressed as mean and standard deviation (SD), whereas categorical variables were expressed as proportions. The following statistical analyses were performed for patients without any missing data (listwise deletion or complete case analysis).

[1] = 20 mg/day, listed as Istradefylline
[2] = 40 mg/day, listed as Istradefylline

SMILES: CCn1c(=O)c2c(nc(/C=C/c3ccc(OC)c(OC)c3)n2C)n(CC)c1=O [istradefylline]
- Mean daily OFF time, change from baseline to week 12 (20 mg/day, N = 235): significant reductions
- Mean daily OFF time, change from baseline to week 12 (20 mg/day, N = 235, listed as Istradefylline): -1.23 ± 1.97 h
- Mean daily ON time with dyskinesia, change from baseline to week 12 (20 mg/day): 0.19 ± 1.53 h
- Mean daily ON time with non-troublesome dyskinesia, change from baseline to week 12 (20 mg/day): significantly increased
- Mean daily ON time with troublesome dyskinesia, change from baseline to week 12 (20 mg/day): 0.03 ± 1.33 h
- Mean daily ON time without dyskinesia, change from baseline to week 12 (20 mg/day): significantly increased
- Mean daily ON time without troublesome dyskinesia, change from baseline to week 12 (20 mg/day): significantly increased
- Mean daily percentage of OFF time, change from baseline to week 12 (20 mg/day): significant reductions
- Mean daily percentage of ON time with dyskinesia, change from baseline to week 12 (20 mg/day): 1.32 ± 9.36%
- Mean daily percentage of ON time with non-troublesome dyskinesia, change from baseline to week 12 (20 mg/day): significantly increased
- Mean daily percentage of ON time with troublesome dyskinesia, change from baseline to week 12 (20 mg/day): 0.15 ± 8.12%
- Mean daily percentage of ON time without dyskinesia, change from baseline to week 12 (20 mg/day): significantly increased
- Mean daily percentage of ON time without troublesome dyskinesia, change from baseline to week 12 (20 mg/day): significantly increased
- Total UPDRS Parts I-III at ON state, change from baseline to week 12 (20 mg/day): significant reductions
- UPDRS Part I score, change from baseline to week 12 (20 mg/day): −0.2 ± 0.9
- UPDRS Part II score OFF state, change from baseline to week 12 (20 mg/day): −1.8 ± 4.1
- UPDRS Part II score ON state, change from baseline to week 12 (20 mg/day): −0.5 ± 2.3
- UPDRS Part III score at ON state, change from baseline to week 12 (20 mg/day): significant reductions
- UPDRS Part IV score, change from baseline to week 12 (20 mg/day): −0.1 ± 1.6
- Mean daily ON time with non-troublesome dyskinesia, change from baseline to week 12 [1]: 0.16 ± 1.56 h
- Mean daily ON time without dyskinesia, change from baseline to week 12 [1]: 1.03 ± 2.20 h
- Mean daily ON time without troublesome dyskinesia, change from baseline to week 12 [1]: 1.19 ± 2.44 h
- Mean daily percentage of OFF time, change from baseline to week 12 [1]: −7.62 ± 12.62%
- Mean daily percentage of ON time with non-troublesome dyskinesia, change from baseline to week 12 [1]: 1.17 ± 9.54%
- Mean daily percentage of ON time without dyskinesia, change from baseline to week 12 [1]: 6.28 ± 13.68%
- Mean daily percentage of ON time without troublesome dyskinesia, change from baseline to week 12 [1]: 7.45 ± 14.95%
- Total UPDRS Parts I-III at ON state, change from baseline to week 12 [1]: −5.8 ± 8.6
- UPDRS Part III score at ON state, change from baseline to week 12 [1]: −5.1 ± 7.2
- CGI-I Minimally improved, % of patients (20 mg/day): (36.2) %
- CGI-I Minimally improved, number of patients (20 mg/day): 85 number of patients
- CGI-I Minimally worse, % of patients (20 mg/day): (5.1) %
- CGI-I Minimally worse, number of patients (20 mg/day): 12 number of patients
- CGI-I Much improved, % of patients (20 mg/day): (18.3) %
- CGI-I Much improved, number of patients (20 mg/day): 43 number of patients
- CGI-I Much worse, % of patients (20 mg/day): (1.3) %
- CGI-I Much worse, number of patients (20 mg/day): 3 number of patients
- CGI-I No change, % of patients (20 mg/day): (36.2) %
- CGI-I No change, number of patients (20 mg/day): 85 number of patients
- CGI-I Very much improved, % of patients (20 mg/day): (2.6) %
- CGI-I Very much improved, number of patients (20 mg/day): 6 number of patients
- CGI-I Very much worse, % of patients (20 mg/day): (0.4) %
- CGI-I Very much worse, number of patients (20 mg/day): 1 number of patients
- Mean daily OFF time, change from baseline to week 12 (40 mg/day, N = 247): significant reductions
- Mean daily OFF time, change from baseline to week 12 (40 mg/day, N = 247, listed as Istradefylline): -1.27 ± 2.42 h
- Mean daily ON time with dyskinesia, change from baseline to week 12 (40 mg/day): 0.20 ± 1.93 h
- Mean daily ON time with non-troublesome dyskinesia, change from baseline to week 12 (40 mg/day): significantly increased
- Mean daily ON time with troublesome dyskinesia, change from baseline to week 12 (40 mg/day): 0.06 ± 1.13 h
- Mean daily ON time without dyskinesia, change from baseline to week 12 (40 mg/day): significantly increased
- Mean daily ON time without troublesome dyskinesia, change from baseline to week 12 (40 mg/day): significantly increased
- Mean daily percentage of OFF time, change from baseline to week 12 (40 mg/day): significant reductions
- Mean daily percentage of ON time with dyskinesia, change from baseline to week 12 (40 mg/day): 1.28 ± 11.40%
- Mean daily percentage of ON time with non-troublesome dyskinesia, change from baseline to week 12 (40 mg/day): significantly increased
- Mean daily percentage of ON time with troublesome dyskinesia, change from baseline to week 12 (40 mg/day): 0.36 ± 6.44%
- Mean daily percentage of ON time without dyskinesia, change from baseline to week 12 (40 mg/day): significantly increased
- Mean daily percentage of ON time without troublesome dyskinesia, change from baseline to week 12 (40 mg/day): significantly increased
- Total UPDRS Parts I-III at ON state, change from baseline to week 12 (40 mg/day): significant reductions
- UPDRS Part I score, change from baseline to week 12 (40 mg/day): −0.1 ± 1.0
- UPDRS Part II score OFF state, change from baseline to week 12 (40 mg/day): significant reductions
- UPDRS Part II score ON state, change from baseline to week 12 (40 mg/day): −0.7 ± 2.2
- UPDRS Part III score at ON state, change from baseline to week 12 (40 mg/day): significant reductions
- UPDRS Part IV score, change from baseline to week 12 (40 mg/day): significant reductions
- Mean daily ON time with non-troublesome dyskinesia, change from baseline to week 12 [2]: 0.15 ± 1.36 h
- Mean daily ON time without dyskinesia, change from baseline to week 12 [2]: 0.99 ± 2.86 h
- Mean daily ON time without troublesome dyskinesia, change from baseline to week 12 [2]: 1.13 ± 2.65 h
- Mean daily percentage of OFF time, change from baseline to week 12 [2]: −7.76 ± 15.02%
- Mean daily percentage of ON time with non-troublesome dyskinesia, change from baseline to week 12 [2]: 0.92 ± 8.26%
- Mean daily percentage of ON time without dyskinesia, change from baseline to week 12 [2]: 6.46 ± 17.10%
- Mean daily percentage of ON time without troublesome dyskinesia, change from baseline to week 12 [2]: 7.39 ± 15.73%
- Total UPDRS Parts I-III at ON state, change from baseline to week 12 [2]: −6.3 ± 8.1
- UPDRS Part II score OFF state, change from baseline to week 12 [2]: −2.0 ± 3.8
- UPDRS Part III score at ON state, change from baseline to week 12 [2]: −5.5 ± 6.6
- UPDRS Part IV score, change from baseline to week 12 [2]: −0.5 ± 1.6
- CGI-I Minimally improved, % of patients (40 mg/day): (32.5) %
- CGI-I Minimally improved, number of patients (40 mg/day): 80 number of patients
- CGI-I Minimally worse, % of patients (40 mg/day): (6.5) %
- CGI-I Minimally worse, number of patients (40 mg/day): 16 number of patients
- CGI-I Much improved, % of patients (40 mg/day): (21.5) %
- CGI-I Much improved, number of patients (40 mg/day): 53 number of patients
- CGI-I Much worse, % of patients (40 mg/day): (0.8) %
- CGI-I Much worse, number of patients (40 mg/day): 2 number of patients
- CGI-I No change, % of patients (40 mg/day): (34.1) %
- CGI-I No change, number of patients (40 mg/day): 84 number of patients
- CGI-I Very much improved, % of patients (40 mg/day): (4.5) %
- CGI-I Very much improved, number of patients (40 mg/day): 11 number of patients
- CGI-I Very much worse, % of patients (40 mg/day): (0.0) %
- CGI-I Very much worse, number of patients (40 mg/day): 0 number of patients
